Molecules are shown by their SMILES.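 Test compounds were applied to cells in 96-well plates for 48 hours at 5 doses. Abbreviation: GI50, concentration required for 50% inhibition of growth. TGI: total growth inhibition.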

Here are results for seven molecules from PubChem BioAssay (NCI).

Among the test systems are HCT-116 colon; MALME-3M melanoma; SK-MEL-2 melanoma; K-562 leukemia; CAKI-1 renal; SNB-75 CNS; UACC-257 melanoma; SR leukemia; PC-3 prostate; TK-10 renal.
Holding throughout (test): growth of human tumour cells (NCI), 48 h

Regarding `COc1cccc(C2=C(c3cn(C)c4cccc(OC)c34)C(=O)NC2=O)c1`, the GI50 was 9.55 µM with HCT-116 colon; greater than 16.6 µM with MALME-3M melanoma; 7.75 µM in the test on SK-MEL-2 melanoma; 3.51 µM in the test with K-562 leukemia; 9.79 µM in the test with CAKI-1 renal; 4.94 µM in the test on SNB-75 CNS. Also, the GI50 with UACC-257 melanoma is greater than 15.9 µM; in the test with SR leukemia, 2.08 µM; in the test on PC-3 prostate, 8.02 µM; with TK-10 renal it was 15.3 µM. The TGI is greater than 25 µM with HCT-116 colon; greater than 25 µM with MALME-3M melanoma; greater than 25 µM in the test on SK-MEL-2 melanoma; greater than 25 µM in the test with K-562 leukemia; greater than 25 µM in the test with CAKI-1 renal; 24.5 µM in the test with SNB-75 CNS. For the same molecule, the TGI in the test with UACC-257 melanoma, with SR leukemia, in the test on PC-3 prostate and in the test on TK-10 renal was greater than 25 µM throughout.
Regarding `C#Cc1cc2c(N)c(C(=O)c3cc(OC)c(OC)c(OC)c3)[nH]c2cc1OC`, the GI50 with HCT-116 colon is 0.431 µM; in the test with MALME-3M melanoma, 0.434 µM; in the test on SK-MEL-2 melanoma, 0.572 µM; in the test with K-562 leukemia, 0.462 µM; with CAKI-1 renal, 0.573 µM; in the test on SNB-75 CNS, 0.208 µM. In addition, the GI50 with UACC-257 melanoma is 0.532 µM; in the test on SR leukemia it was 0.381 µM; in the test with PC-3 prostate, 0.45 µM; in the test with TK-10 renal, 17.8 µM. Besides, the TGI in the test with HCT-116 colon was greater than 100 µM; with MALME-3M melanoma it was greater than 100 µM; with SK-MEL-2 melanoma, 62.9 µM; in the test with K-562 leukemia, greater than 100 µM; with CAKI-1 renal, greater than 100 µM; with SNB-75 CNS, 1.18 µM. For the same molecule, the TGI with UACC-257 melanoma, in the test on SR leukemia, in the test with PC-3 prostate and in the test with TK-10 renal was greater than 100 µM throughout.
Turning to `O=c1c2c3c(sc2n2c(-c4ccc(Br)cc4)nnc2n1Cc1ccccc1)CCCC3`, the GI50 in the test on HCT-116 colon was 9.56 µM; in the test on MALME-3M melanoma, 3.19 µM; in the test with SK-MEL-2 melanoma, 8.58 µM; in the test on K-562 leukemia, 23.8 µM; with CAKI-1 renal, 6.02 µM; in the test with SNB-75 CNS, 7.99 µM. The GI50 with SR leukemia was 4.76 µM; in the test on PC-3 prostate it was 2.97 µM; in the test with TK-10 renal it was 7.94 µM. In addition, the TGI in the test on HCT-116 colon was 22.7 µM; in the test on MALME-3M melanoma, 19.5 µM; in the test with SK-MEL-2 melanoma, 21.2 µM; in the test on K-562 leukemia, greater than 100 µM; in the test on CAKI-1 renal, 22.4 µM; in the test with SNB-75 CNS, 22.1 µM. Also, the TGI in the test with UACC-257 melanoma is 11.9 µM; in the test on SR leukemia it was 23.6 µM; with PC-3 prostate, 16.6 µM; with TK-10 renal it was 21.8 µM.
Regarding `C1CC[N-]CC1.CC(=N\O)/C(C)=N/O.CC(=N\O)/C(C)=N/O.[CH2-]CCN1CCOCC1.[Co+2]`, the GI50 in the test on HCT-116 colon, in the test with MALME-3M melanoma, with SK-MEL-2 melanoma, in the test on K-562 leukemia, with CAKI-1 renal and in the test with SNB-75 CNS was greater than 100 µM each time. Moreover, the GI50 with UACC-257 melanoma was 98.1 µM; in the test with SR leukemia, 6.1 µM; in the test with PC-3 prostate, greater than 100 µM; with TK-10 renal, greater than 100 µM. In addition, the TGI in the test with HCT-116 colon, in the test with MALME-3M melanoma, in the test on SK-MEL-2 melanoma, with K-562 leukemia, in the test with CAKI-1 renal and in the test on SNB-75 CNS was greater than 100 µM in each case. Besides, the TGI in the test on UACC-257 melanoma, with SR leukemia, with PC-3 prostate and with TK-10 renal was greater than 100 µM each time.
`ClCC#CCSc1ncnc2c1ncn2CC#CCCl`: the GI50 with HCT-116 colon is 1.42 µM; with MALME-3M melanoma, 1.88 µM; in the test on SK-MEL-2 melanoma, 1.75 µM; with K-562 leukemia, 3.15 µM; in the test with CAKI-1 renal it was 1.15 µM; in the test with SNB-75 CNS, 1.42 µM. The GI50 is 1.36 µM in the test with UACC-257 melanoma, 0.432 µM in the test with SR leukemia, 1.41 µM in the test with PC-3 prostate and 2.94 µM in the test on TK-10 renal. In addition, the TGI in the test with HCT-116 colon stood at 2.93 µM; in the test on MALME-3M melanoma, 6.42 µM; in the test on SK-MEL-2 melanoma, 4.79 µM; in the test on K-562 leukemia, 40.4 µM; in the test with CAKI-1 renal it was 3.74 µM; in the test with SNB-75 CNS, 3.06 µM. The TGI in the test on UACC-257 melanoma turned out to be 3.49 µM; in the test on SR leukemia it was 13.8 µM; in the test on PC-3 prostate it was 3.24 µM; in the test with TK-10 renal it was 13.9 µM.
For `OC(COc1cccc2ccccc12)CN1CCN(c2ccccc2Cl)CC1` (centres undefined), the GI50 in the test on HCT-116 colon was 10.8 µM; in the test with MALME-3M melanoma, 10.3 µM; in the test with SK-MEL-2 melanoma, 15.4 µM; in the test with K-562 leukemia, 4.58 µM; in the test with CAKI-1 renal it was 7.23 µM; with SNB-75 CNS, 11.2 µM. For the same molecule, the GI50 is 16.5 µM in the test on UACC-257 melanoma, 13.5 µM with SR leukemia, 7.88 µM in the test on PC-3 prostate and 5.58 µM in the test on TK-10 renal. Besides, the TGI was 24.5 µM in the test on HCT-116 colon; 25.9 µM in the test with MALME-3M melanoma; 29.5 µM in the test with SK-MEL-2 melanoma; 17.6 µM in the test on K-562 leukemia; 22.7 µM in the test on CAKI-1 renal; 24.7 µM with SNB-75 CNS. The TGI in the test on UACC-257 melanoma stood at 31 µM; in the test on SR leukemia it was 40.4 µM; in the test on PC-3 prostate it was 23.2 µM; in the test with TK-10 renal, 17.1 µM.
Turning to `CCOC(=O)c1ccccc1-c1c2ccc(=[N+](C)C)cc-2oc2cc(N(C)C)ccc12`, the GI50 was 0.257 µM in the test with HCT-116 colon; 0.333 µM in the test on MALME-3M melanoma; 0.579 µM in the test with SK-MEL-2 melanoma; 0.145 µM in the test on K-562 leukemia; 0.691 µM in the test with CAKI-1 renal; 0.196 µM with SNB-75 CNS. The GI50 in the test on UACC-257 melanoma is 0.198 µM; in the test with SR leukemia, 0.298 µM; in the test with PC-3 prostate, 0.0778 µM; with TK-10 renal, 1.06 µM. Also, the TGI in the test on HCT-116 colon is 13.1 µM; in the test with MALME-3M melanoma it was 7.62 µM; with SK-MEL-2 melanoma, 4.1 µM; in the test with K-562 leukemia it was greater than 35.1 µM; with CAKI-1 renal, 4.64 µM; with SNB-75 CNS, 11 µM. For the same molecule, the TGI was 7.58 µM in the test with UACC-257 melanoma, 27.4 µM with SR leukemia, 12.8 µM with PC-3 prostate and 25.2 µM in the test with TK-10 renal.
